Measurements as given in PubChem BioAssay (NCI).
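The compound was tested at five concentrations on cells cultured in 96-well plates, with a 48-hour exposure period. At the TGI there is no net growth.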

Assays:
Assay in all cases: NCI-60 cell line screen, 48 h
[1] = system: LOX IMVI melanoma
[2] = system: K-562 leukemia
[3] = system: SK-MEL-2 melanoma
[4] = system: SF-268 CNS
[5] = system: BT-549 breast
[6] = system: ACHN renal
[7] = system: NCI-H23 lung
[8] = system: MDA-MB-231 breast
[9] = system: MOLT-4 leukemia
[10] = system: SNB-75 CNS
[11] = system: SK-MEL-28 melanoma
[12] = system: KM12 colon
[13] = system: MCF7 breast
[14] = system: HOP-62 NSCLC
[15] = system: MDA-N
[16] = system: HCC-2998 colon
[17] = system: 786-0 renal
[18] = system: M14 melanoma
[19] = system: UACC-62 melanoma
[20] = system: SNB-19 CNS
[21] = system: DU-145 prostate
[22] = system: IGROV1 ovarian
[23] = system: OVCAR-8 ovarian
[24] = system: COLO 205 colon
[25] = system: OVCAR-4 ovarian
[26] = system: EKVX NSCLC
[27] = system: SW-620 colon
[28] = system: HL-60(TB) leukemia
[29] = system: T-47D breast
[30] = system: SF-539 CNS
[31] = system: SK-OV-3 ovarian
[32] = system: SN12C renal
[33] = system: OVCAR-5 ovarian
[34] = system: A549 NSCLC
[35] = system: NCI/ADR-RES ovarian
[36] = system: SF-295 CNS
[37] = system: MDA-MB-435
[38] = system: HT29 colon
[39] = system: U251 CNS
[40] = system: TK-10 renal
[41] = system: RXF 393 renal
[42] = system: HCT-116 colon
[43] = system: UACC-257 melanoma
[44] = system: CCRF-CEM leukemia
[45] = system: CAKI-1 renal
[46] = system: RPMI-8226 leukemia
[47] = system: MALME-3M melanoma
[48] = system: OVCAR-3 ovarian
[49] = system: NCI-H522 lung
[50] = system: HOP-92 NSCLC
[51] = system: NCI-H226 lung
[52] = system: HCT-15 colon
[53] = system: NCI-H460 lung
[54] = system: PC-3 prostate
[55] = system: A498 renal
[56] = system: UO-31 renal
[57] = system: SR leukemia
[58] = system: HS 578T breast
[59] = system: SK-MEL-5 melanoma

Measured: TGI

COC(=O)[C@@]12CC3CN(Cc4c1[nH]c1ccccc41)C2CC3=O
not listed: [55] | [56] | [57] | [58] | [59]
> 100 µM: all other assays above

CC(CC(C)[C@H]1CCC2[C@H]3C(CC[C@@]21C)[C@@]1(C)CCC(O)C[C@H]1C[C@@H]3O)C(=O)O (some centres undefined)
not listed: [31] | [36] | [48] | [58] | [59]
> 100 µM: all other assays above

COc1cc(CNc2nc3cc(C(F)(F)F)ccc3nc2C(=O)O)cc(OC)c1OC
82 µM: [53]
43.3 µM: [36]
57 µM: [58]
28.9 µM: [19]
78.2 µM: [12]
15.4 µM: [28]
45.2 µM: [15]
78.9 µM: [45]
61 µM: [2]
30.2 µM: [32]
35.7 µM: [18]
53.7 µM: [24]
92.9 µM: [37]
83.8 µM: [29]
73.3 µM: [6]
49.9 µM: [13]
60.7 µM: [55]
59.3 µM: [14]
58.1 µM: [9]
29 µM: [42]
37.6 µM: [30]
61.5 µM: [34]
39.4 µM: [56]
74.7 µM: [10]
76.4 µM: [35]
47.1 µM: [3]
63.6 µM: [43]
56.7 µM: [20]
59.1 µM: [17]
57.9 µM: [54]
31.2 µM: [39]
64.2 µM: [48]
39.7 µM: [40]
57.1 µM: [26]
not listed: [8] | [22] | [25] | [38] | [44] | [46] | [50] | [59]
> 100 µM: all other assays above

O=C(O)C(C1NCCS1)N1Cc2ccccc2C1 (centres undefined)
not listed: [4] | [16] | [49] | [58]
> 100 µM: all other assays above
